The subject of data set [1] is DOHH2 cells. Description: DOHH2 proliferation assay (CellTiter-Glo, day 7). Format: cell-based. Particulars: Homo sapiens, DOHH-2, 168 h; viability by CellTiter-Glo on day 7. How it is done: On day 1, 1000 DOHH2 cells were seeded to a 384-well TC plate (PerkinElmer #6007680) in 40 μL RPMI 1640 media, followed by the addition of CBP inhibitors except for column 13 where 3.3 μM staurosporine was added as negative control. DMSO was 0.1% in all the wells. The cells were lysed in and counted for viability by 40 μL CellTiter-Glo (Promega #G9243) on day 7. The luminescent signal was quantified by Envision Multilabel plate reader and the standard dose response curves were fitted by Genedata Screener software using the variable-slope model: Signal=Signalnegative control+(SignalDMSO control−Signalnegative control)/(1+(IC50/Dose)^Hill slope).
(§1) Only Signal and Dose in the equation were treated as known values.

The target in data set [2] is T1, BRD4 (49-170) bromodomain (Homo sapiens, UniProt O60885).
T1 construct: The GST tagged bromodomains of CBP (1081-1197) and BRD4 (49-170) were obtained from BPS Bioscience; purchased BPS Bioscience
As to the kind of experiment: BRD4 AlphaScreen assay. Format: binding. Particulars: biotin-H4 (1-21) Ac-K5/8/12/16 peptide. The protocol: (§2) Specific binding of the CBP or BRD4 bromodomain to the acetylated peptide derived from the H4 histone substrate (tetra acetylated H4 (1-21) Ac-K5/8/12/16) was measured in absence or presence of inhibitors. The GST tagged bromodomains of CBP (1081-1197) and BRD4 (49-170) were obtained from BPS Bioscience and binding to the biotinylated H4 (1-21) Ac-K5/8/12/16 (AnaSpec. 64989) was assessed via AlphaScreen technology (Perkin Elmer).
(§3) The binding of 2.5 nM of BRD4 (49-170) to 10 nM biotin-H4 (1-21) Ac-K5/8/12/16 (AnaSpec. 64989) was assessed following the same procedure described for the CBP assay. The standard dose response curves were fitted by Genedata Screener software using the variable-slope model: Signal=Signalnegative control+(SignalDMSO control−Signalnegative control)/(1+(IC50/Dose)^Hill slope).
as §1

Data set [3] can be described thus: Metabolic stability in rat liver microsomes. Format: in vitro ADME. Particulars: pH 7.4; Sprague Dawley rat liver microsomes 0.5 mg/mL, NADPH, 45 minutes, 37° C.; read-out: Half-life in liver microsomes (t1/2), Rat. How it is done: (§4) Microsomal stability. Microsomal stability assays were conducted on a Beckmann Biomek FXp laboratory automation system. The liver microsomal incubation mixture consisted of liver microsomes (0.5 mg microsomal protein/mL), the Compound (1 μM), MgCl2 (3 mM), and EDTA (1 mM) in potassium phosphate buffer (100 mM, pH 7.4). Midazolam and Ketanserin were used as the assay control substrates. The reaction was initiated with the addition of an NADPH regeneration solution (1.3 mM NADPH) and maintained at 37° C. with shaking. At five time points ranging from 0 to 45 min, aliquots (50 μL) were removed and quenched with acetonitrile (100 μL) containing an internal standard (imipramine). After vortex and centrifugation, samples were analyzed by LC-MS/MS. Calculation of the in vitro half-lives and clearance followed literature guidelines.

Data set [4] in a line: In vivo pharmacokinetics after a single dose, monkey. The settings on record: male, plasma, Cynomolgus monkey. The protocol:
(§5) IV (intravenous) doses were formulated in 20% DMSO+60% PEG400+20% water. PO (per os) doses were formulated in 0.5% methylcellulose in water.
(§6) Monkey: Male Cynomolgus monkeys (purchased from Hainan Jingang Biotech. Co., Ltd) weighing 3-5 kg were used for studies. Animals were fasted overnight and fed 4 h postdose. Test article was administered to monkeys via the cephalic vein (IV doses) or nasal gavage (PO doses). Blood samples were collected via the saphenous vein or cephalic vein from all animals at predose and 0.083, 0.25, 0.5, 1, 2, 4, 8, and 24 h postdose into tubes containing the anticoagulant K2EDTA. Plasma was separated from the blood by centrifugation at 4° C. and stored at −70° C. until analysis. Test article concentrations in plasma were quantified using a liquid chromatography with tandem mass spectrometry (LC-MS/MS) method.

A short description of data set [5]: Metabolic stability in mouse liver microsomes. Format: in vitro ADME. Particulars: pH 7.4; CD-1 mouse liver microsomes 0.5 mg/mL, NADPH, 45 minutes, 37° C.; read-out: Half-life in liver microsomes (t1/2), Mouse. The protocol: as §4
Data set [6] can be described thus: Metabolic stability in dog liver microsomes. The data set is classed as in vitro ADME. The settings on record: pH 7.4, read-out: Liver microsomal clearance (t1/2), Dog. How it is done:
as §4

Data set [7] is described as follows: In vivo pharmacokinetics after a single dose, rat. Particulars: male, plasma, Sprague-Dawley rat. How it is done: as §5
Rat: Male rats (SD strain, purchased from Shanghai JH Laboratory Animal Co. LTD) weighing 200-300 g were used for studies. Animals were fasted overnight and fed 4 h postdose. Water was available ad libitum for all animals. Test article was dosed via dorsal foot vein (IV doses) or oral gavage (PO doses). Blood samples were collected via tail vein from all animals at predose and at 0.083, 0.25, 0.5, 1, 2, 4, 8, and 24 h postdose into tubes containing the anticoagulant K2EDTA. Plasma was separated from the blood by centrifugation at 4° C. and stored at −70° C. until analysis. Test article concentrations in plasma were quantified using a liquid chromatography with tandem mass spectrometry (LC-MS/MS) method.

Data set [8] in a line: In vivo pharmacokinetics after a single dose, mouse. The settings on record: female CD-1 mice, single dose 0.2 or 0.3 mg/kg IV; for Vd: read-out: Vss. The protocol:
as §5
Mouse: Female mice (CD1 strain, purchased from Shanghai JH Laboratory Animal Co. LTD) weighing 20-30 g were used for studies. Food and water were available to all animals ad libitum. The test article was dosed via tail vein (IV doses) or oral gavage (PO doses), respectively. Blood samples were collected from all animals at predose and at 0.083, 0.25, 0.5, 1, 2, 4, 8, and 24 h postdose into tubes containing the anticoagulant K2EDTA (3 animals per time point with 3 time points collected per animal). Plasma was separated from the blood by centrifugation at 4° C. and stored at −70° C. until analysis. Test article concentrations in plasma were quantified using a liquid chromatography with tandem mass spectrometry (LC-MS/MS) method.

A short description of data set [9]: Metabolic stability in human liver microsomes. The data set is classed as in vitro ADME. The settings on record: pH 7.4; human liver microsomes 0.5 mg/mL, NADPH, 45 minutes, 37° C.; read-out: Half-life in liver microsomes (t1/2), Human. The protocol: as §4
Data set [10] is described as follows: In vivo pharmacokinetics after a single dose, dog. Particulars: male, plasma, Beagle dog. How it is done: as §5
as §6, with “Dog:” for “Monkey:”, “Beagle dogs” for “Cynomolgus monkeys”, “Beijing Marshall Biotechnology” for “Hainan Jingang Biotech.”, “7-10” for “3-5”, “dogs” for “monkeys”, “oral” for “nasal”

A short description of data set [11]: Metabolic stability in monkey liver microsomes. The data set is classed as in vitro ADME. Particulars: pH 7.4, read-out: Liver microsomal clearance (t1/2), Monkey. How it is done:
as §4

In data set [12] the target is T2, GST-CBP (1081-1197) bromodomain (Homo sapiens, UniProt Q92793).
T2 construct: The GST tagged bromodomains of CBP (1081-1197) and BRD4 (49-170) were obtained from BPS Bioscience; purchased BPS Bioscience
T2 sequence (Q92793 1081-1197): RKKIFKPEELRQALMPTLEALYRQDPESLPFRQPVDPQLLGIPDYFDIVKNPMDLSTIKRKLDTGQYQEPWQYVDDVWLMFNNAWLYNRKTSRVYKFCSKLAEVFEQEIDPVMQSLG
As to the kind of experiment: CBP AlphaScreen assay. Format: binding. The settings on record: biotin-H4 (1-21) Ac-K5/8/12/16 peptide. How it is done:
as §2
5 nM GST-CBP (1081-1197) and 20 nM biotin-H4 (1-21) Ac-K5/8/12/16 (AnaSpec. 64989) were incubated with varying concentrations of CBP inhibitors in 15 μL of buffer containing 50 mM HEPES 7.5, […], 1 mM TCEP, and 0.003% Tween-20. After 30 minutes incubation at room temperature, 15 μL of detection buffer (BPS Bio. 33006) containing 7 μg/mL of Glutathione AlphaLisa acceptor beads (Perkin Elmer AL109) and 14 μg/mL of Streptavidin donor beads (Perkin Elmer 676002) was then added to the previous mixture. The reaction was incubated for an additional 2 hours at room temperature, and the AlphaScreen signal was quantified using the Envision Multilabel plate reader. As negative control, GST-CBP (1081-1197) was incubated with the non-acetylated biotin-H4 (1-21) peptide (AnaSpec. 62555) and in presence of 0.25% of final DMSO concentration.
as §3, §1

Where [13] appears, read: mouse, plasma, read-out: Clearance (converted).

Take `CNC(=O)N1CCn2c(C3CCOCC3)nc(-c3cccc4nc(-c5cnc(C)s5)c(C(F)F)cc34)c2C1` [Compound 1, 1-(3-(difluoromethyl)-2-(2-methylthiazol-5-yl)quinolin-5-yl)-N-methyl-3-(tetrahydro-2H-pyran-4-yl)-5,6-dihydroimidazo[1,5-a]pyrazine-7(8H)-carboxamide]: the IC50 in data set [1] is 0.029 µM; in data set [2] it was 4.79 µM; in data set [12], 0.003 µM. Also, the half-life at 1 μM was 3.22 h in data set [3]; 69.8 h in data set [5]; 1.05 h in [6]; 3.97 h in data set [9]; 0.383 h in [11]. The clearance is 0.74 L/h/kg in [4] (1 mg/kg IV); 0.535 L/h/kg in data set [7] (1 mg/kg IV); “dramatic decrease” in [8]; 0.197 L/h/kg in data set [8] (setting [13]); 0.403 L/h/kg in data set [10] (1 mg/kg IV). The half-life in [4] (1 mg/kg IV) is 1.65 h; in [7] (1 mg/kg IV) it was 2.99 h; in data set [8] (mouse, plasma) it was 4.47 h; in data set [10] (1 mg/kg IV), 3.42 h. Besides, the Vd in [4] (1 mg/kg IV, read-out: Vss) was 1.06 L/kg; in data set [7] (1 mg/kg IV, read-out: Vss), 0.908 L/kg; in [8] (mouse, plasma), 0.342 L/kg; in data set [10] (1 mg/kg IV, read-out: Vss) it was 1.57 L/kg. Moreover, the values for the AUC(0-t) in data set [4] (3 mg/kg PO), in [7] (3 mg/kg PO) and in [10] (3 mg/kg PO) were 2490 nM·h, 2630 nM·h and 10800 nM·h, respectively. The figures for the Cmax in data set [4] (3 mg/kg PO), in data set [7] (3 mg/kg PO) and in data set [10] (3 mg/kg PO) were 0.773 µM, 1.35 µM and 1.87 µM, respectively. Further, the bioavailability was 28.2% in [4] (3 mg/kg PO), 25.2% in data set [7] (3 mg/kg PO) and 78.9% in data set [10] (3 mg/kg PO). For the same compound, the t1/2 entry in [8] was “increase”.
Take `CC(=O)N1CCn2c(C3CCOCC3)nc(-c3cccc4nc(-c5cnc(C)s5)c(C(F)F)cc34)c2C1` [Compound 2]: the IC50 in [1] was 0.215 µM; in [2], 1.93 µM; in data set [12], 0.002 µM.
In the same order, the values of `CC(=O)N1CCn2c(C3CCOCC3)nc(-c3cccc4nc(-c5ccc(C)nc5)c(C(F)F)cc34)c2C1` [Compound 3, 1-(1-(3-(Difluoromethyl)-2-(6-methylpyridin-3-yl)quinolin-5-yl)-3-(tetrahydro-2H-pyran-4-yl)-5,6-dihydroimidazo[1,5-a]pyrazin-7(8H)-yl)ethan-1-one] are 0.198 µM, 7.43 µM and 0.017 µM.
As to `CNC(=O)N1CCn2c(C3CCOCC3)nc(-c3cccc4cc(-c5cnc(C)s5)ncc34)c2C1` [Compound 4, reference compound], the IC50 in data set [1] turned out to be 0.134 µM. Also, the half-life at 1 μM amounted to 8.45 h in [3], 86.7 h in data set [5] and 4.35 h in [9]. In [8] (mouse, plasma), this compound showed a half-life of 0.318 h. The clearance in [8] (setting [13]) is 2.01 L/h/kg. For the same compound, the Vd in data set [8] (mouse, plasma) worked out at 0.822 L/kg.

(Values after patent US12540139B2, “Imidazopiperazine inhibitors of transcription activating proteins” (Board of Regents, The University of Texas System, priority 2020, dated 2026).)
